What was measured:
[1] = test system: endothelial tube formation; conditions: cited from earlier work
angiogenesis in vivo = test system: angiogenesis in vivo; design: method as in PMID 22669534; conditions: chorioallantoic membrane assay and corneal angiogenesis assay; cited from earlier work
EMT process = conditions: through decreasing the mRNA level of E-cadherin; cited from earlier work
MCF-10A cells = assay: Flow cytometry cell cycle phase distribution; format: cell-based, human; conditions: treatment alone (IC10 of PSE/Phy, or TGF-β 30 ng/mL)
Protocol: The MCF-10A and BJ-5ta cells were seeded and cultivated for 24 h in a complete medium. One day after seeding, 30 ng/mL of TGF-β was added and cultivated for 7 days (d). TGF-β was added to induce epithelial–mesenchymal transition in tested cell lines. Lichen extract P. furfuracea (L.) Zopf and its metabolite physodic acid were added at time 0 h and then incubated for 24, 48 and 72 h for various analyses, as described in Figure 1.
The MCF-10A cells (1 × 10^4/well) were seeded in Petri dishes and stimulated with […] TGF-β for 7 days. […] After detaching, using Trypsin/EDTA, cells were harvested and pelleted by centrifugation at 1200 rpm for 5 min. Pellet was re-suspended in PBS and divided for a particular analysis. Cells were stained prior to analyses with E-Cadherin Mouse mAb (Alexa Fluor 488 conjugate) or N-cadherin Rabbit mAb (Alexa Fluor 647 conjugate) (Cell Signalling) for 15 min at RT in the dark. For the cell cycle analyses, cells were re-suspended in staining solution (final concentration 0.1% Triton X-100, 0.5 mg/mL ribonuclease A and 0.025 mg/mL propidium iodide (PI)), and incubated in the dark at RT for 30 min. All samples were analysed using a FACS Calibur flow cytometer (Becton Dickinson, San Jose, CA, USA). The IgG isotype control checking was performed for every used antibody.

HUVEC = test system: HUVEC; design: method as in PMID 22669534; conditions: cited from earlier work
[2] = test system: N-cadherin, Snail, Twist, E-cadherin; design: method as in PMID 26371759; conditions: cited from earlier work

Compound: CC(=O)c1c(O)c(C)c(O)c2c1OC1=CC(=O)C(C(C)=O)C(=O)C12C (centres unmarked) [usnic acid]
- anti-angiogenic activity by inhibiting endothelial tube formation [1]: strong anti-angiogenic activity
- angiogenesis in vivo (angiogenesis in vivo): inhibits
- effect on the EMT process (EMT process): inhibitory effect

Compound: CCCCCC(=O)Cc1cc(O)cc(O)c1C(=O)Oc1cc(O)c(C(=O)O)c(CCCCC)c1 [olivetoric acid]
- endothelial tube formation [1]: inhibiting

Compound: TGF-β
- G1 cell cycle phase distribution (MCF-10A cells; 24 h): 74.55 ± 1.59
- G2/M cell cycle phase distribution (MCF-10A cells; 24 h): 13.25 ± 2.49
- S cell cycle phase distribution (MCF-10A cells; 24 h): 11.15 ± 0.69
- Sub G0 cell cycle phase distribution (MCF-10A cells; 24 h): 1.07 ± 0.22
- G1 cell cycle phase distribution (MCF-10A cells; 48 h): 83.05 ± 2.74
- G2/M cell cycle phase distribution (MCF-10A cells; 48 h): 8.63 ± 1.69
- S cell cycle phase distribution (MCF-10A cells; 48 h): 7.39 ± 0.88
- Sub G0 cell cycle phase distribution (MCF-10A cells; 48 h): 0.94 ± 0.16
- G1 cell cycle phase distribution (MCF-10A cells; 72 h): 81.35 ± 0.37
- G2/M cell cycle phase distribution (MCF-10A cells; 72 h): 10.85 ± 0.45
- S cell cycle phase distribution (MCF-10A cells; 72 h): 6.61 ± 0.74
- Sub G0 cell cycle phase distribution (MCF-10A cells; 72 h): 1.22 ± 0.07

Compound: CC(=O)c1c(O)c(C)c(O)c2c1OC1=CC(=O)C(C(C)=O)C(=O)C12C (stereo not drawn) [(+)- usnic acid]
- VEGF-induced HUVEC migration and tube formation (HUVEC): inhibits

Compound: COC(=O)/C(=C1/OC(=O)C(c2ccccc2)=C1O)c1ccccc1 [vulpinic acid]
- anti-angiogenic activity by inhibiting endothelial tube formation [1]: strong anti-angiogenic activity

Compound: COC(=O)c1c(C)c2c(c(C)c1O)OC(=O)c1c(C)c(Cl)c(O)c(C=O)c1O2 [physciosporin]
- changes in E-cadherin levels [2]: not observed
- level of EMT-associated proteins N-cadherin, Snail and Twist [2]: decrease

From article PMC8000760, “Potential Effect of Pseudevernia furfuracea (L.) Zopf Extract and Metabolite Physodic Acid on Tumour Microenvironment Modulation in MCF-10A Cells” (Biomolecules, 2021)
